In patent publication US11366121B2, “Specific GNAI:GIV interaction screening assays, methods and compositions” (The Regents of the University of California, priority 2017, dated 2022):

What was measured:
[1] = target: GIV:Gαi3 (hGαi3 with FITC-labelled GIV C-terminal peptide KTGSPGSEVVTLQQFLEESNKLTSVQIKSSS, SEQ ID NO: 1) (Homo sapiens, UniProt P08754); test: Inhibition of GIV:Gαi3 interaction by fluorescence polarization (FITC-GIV peptide binding to hGαi3); confirmed hits, FIG. 10
Text: FIG. 10. Further analysis of confirmed hits validate the assay to identify inhibitors of the target.
(§1) FIGS. 11A-11E. A HTS-compatible fluorescence polarization (FP) assay to monitor the GIV:Gαi3 interaction.
(§2) FIG. 14. Kd's determined from fluorescence polarization assays with FITC peptides and hGαi3.
The present invention provides a research tool assay for identifying a specific modulator of GNAI, comprising: (a) combining a drug candidate with GNAI and a C-terminal GIV peptide and determining if the drug candidate inhibits GNAI interaction with the C-terminal GIV peptide; and (b) combining the drug candidate with GNAI and a DAPLE peptide and determining if the drug candidate inhibits GNAI interaction with DAPLE peptide.
In embodiments, the C-terminal GIV peptide comprises the amino acid sequence of SEQ ID NO: 1. In embodiments, the DAPLE peptide comprises the amino acid sequence of SEQ ID NO:2.
In embodiments, the determining steps are detected by fluorescent polarization.
In embodiments, the invention provides an assay and method for screening for drug candidates which act as specific inhibitors against the GNAI:GIV interface. […]
As for the first step in the assay, this small region of 31 aa GIV peptide: […] (SEQ ID NO: 1) was arrived at after careful biochemistry determined that anything less than this is less efficient in binding or activation the G protein, GNAI. […]

[2] = target: GIV:Gαi (Homo sapiens, UniProt P08754); test: GST-pulldown assay confirming hits; assay type: binding; conditions: FIG. 11E
Sequence of GIV:Gαi (P08754 whole entry): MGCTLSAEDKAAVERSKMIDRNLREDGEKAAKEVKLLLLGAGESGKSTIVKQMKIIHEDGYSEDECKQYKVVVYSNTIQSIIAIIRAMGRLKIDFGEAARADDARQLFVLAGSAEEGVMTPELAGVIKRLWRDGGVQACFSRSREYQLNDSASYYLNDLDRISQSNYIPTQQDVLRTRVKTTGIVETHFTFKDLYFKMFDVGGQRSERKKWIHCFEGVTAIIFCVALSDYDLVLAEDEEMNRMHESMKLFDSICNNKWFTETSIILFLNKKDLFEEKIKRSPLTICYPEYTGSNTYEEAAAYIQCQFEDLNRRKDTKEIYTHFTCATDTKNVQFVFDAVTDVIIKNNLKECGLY
Method: (§3) A pilot screen of the LOPAC1280 library (collection of known bioactive compounds) was conducted and identified lead compounds with inhibitory activity (FIG. 11A). A virtual ligand screen (VLS) of the same library (LOPAC1280) was conducted using in silico docking methods (FIG. 11B). The results from both screens were compared. […] From the virtual screen 7 ‘hits’ (FIG. 11B) were identified. Importantly, 2 of the virtual screen hits matched the results from the FP assay and a third was validated as a GIV:Gαi inhibitor. Compounds were validated by dose response curves (FIG. 11D). […] None of the other 4 hits predicted by the VLS inhibited binding.

[3] = target: GIV:Gαi3 interaction (Homo sapiens, UniProt P08754); test: fluorescence polarization (FP) assay monitoring the GIV:Gαi3 interaction, dose response curves; assay type: binding; conditions: FIG. 11D
Sequence of GIV:Gαi3 interaction (P08754 whole entry): as above
Method: as §1, §2, §3

Sequence of UniProt P08754 (P08754 whole entry): as above

SMILES | Ki [1] [µM] | confirmation as hit by GST-pulldown [2] | IC50 [3] [µM]
O=C(O)C1=CC(=C(c2ccc(O)c(C(=O)O)c2)c2ccc(O)c(C(=O)O)c2)C=CC1=O [ATA, aurintricarboxylic acid] |  |  | ~5
O=C(Nc1cccc(C(=O)Nc2ccc(S(=O)(=O)[O-])c3cc(S(=O)(=O)[O-])cc(S(=O)(=O)[O-])c23)c1)Nc1cccc(C(=O)Nc2ccc(S(=O)(=O)[O-])c3cc(S(=O)(=O)[O-])cc(S(=O)(=O)[O-])c23)c1.[Na+].[Na+].[Na+].[Na+].[Na+].[Na+] [NF023, 8,8′-[carbonylbis(imino-3,1-phenylenecarbonylimino)]bis(1,3,5-naphthalene-trisulfonic acid) hexasodium salt] |  | true hits | ~5

The remaining lines, values ahead:

Ki [1] [µM] | confirmation as hit by GST-pulldown [2] | IC50 [3] [µM] | SMILES
49 |  |  | Cc1ccc(C(=O)Nc2ccc(S(=O)(=O)O)c3cc(S(=O)(=O)O)cc(S(=O)(=O)O)c23)cc1NC(=O)c1cccc(NC(=O)Nc2cccc(C(=O)Nc3cc(C(=O)Nc4ccc(S(=O)(=O)O)c5cc(S(=O)(=O)O)cc(S(=O)(=O)O)c45)ccc3C)c2)c1 [Suramin, suramin]
 | false positive |  | CC[C@@]1(O)C(=O)OCc2c1cc1n(c2=O)Cc2cc3c(CN(C)C)c(O)ccc3nc2-1 [topotecan]
 |  | ~805 | Cc1ccc(C(=O)Nc2ccc(S(=O)(=O)O)c3cc(S(=O)(=O)O)cc(S(=O)(=O)O)c23)cc1NC(=O)c1cccc(NC(=O)Nc2cccc(C(=O)Nc3cc(C(=O)Nc4ccc(S(=O)(=O)O)c5cc(S(=O)(=O)O)cc(S(=O)(=O)O)c45)ccc3C)c2)c1 [suramin]
